These results are taken from US12054509B2, “Antimicrobial compounds, compositions, and uses thereof” (Lakewood Amedex, Inc., priority 2017, dated 2024).

Molecules are shown by their SMILES.

Assay [1] relates to Helicobacter pylori SS1 (CagA+, VacA+). The assay can be described thus: Helicobacter pylori SS1 infection in C57BL6 mice, bacterial stomach titers. In kind it is in vivo. An excerpt: The mouse strain used in this study is C57BL6 ranging from 5-6 weeks in age and 18-22 grams in weight. Mice are housed five to a cage with free access to food and water in accordance with NIB guidelines.
A bacterial strain of Helicobacter pylori SS1 (CagA+, VacA+) is adapted for the mouse model from a human clinical isolate and validated in this infection model.
At 6 days prior to infection, a frozen stock is streaked onto one to two Columbia 5% sheep blood agar plates, and the plates are microaerophilically incubated for 72 hours at 37° C. After 72 hours, the plate growth is subcultured onto five Columbia 5% sheep blood agar plates and is incubated as before. After another 72 hours of incubation, the plates are removed, and the plate growth is suspended in sterile 0.9% saline to an OD of 1.5-2.0 at 530 nm. This OD is approximately equal to 1.0e+09 CFU/mL, which is used to orally infect the mice on all 3 infection days. To infect mice, the mice are orally dosed 0.25 mL of the 1.0e+09 CFU/mL via a 20-22 G gavage needle. Mice need to be fasted only before the first infection.
At 1 week post-infection, mice are treated with Nu-8. Multiple dose antibiotic therapies are administered orally at 0.2 mL/dose. Antibiotics are administered 2 times per day and continued for 7 days. The control group is administered the vehicle alone.
Food is removed from cages 18 hours prior to euthanizing animals and each cage is clearly labeled that the animals are being experimentally fasted. Mice are euthanized (CO2 & cervical dislocation). […] The excised stomach is placed into a sterile petri dish and the luminal contents are rinsed away with sterile 1×PBS. Each rinsed stomach is placed into a 14-mL Falcon tube containing 2 mL of 1×PBS and stored on ice. Each stomach is homogenized, 10-fold serial diluted in 1×PBS, spot plated onto Columbia agar with 3.5% laked horse blood±the DENT selective antibiotic supplement, and microaerophilically incubated for 5 days at 37° C. Then, colonies are counted.
Nu-8 is administered at various doses (mg/kg), orally, twice-a-day for 7 days. The formulations, concentration and dose volumes for treatment is established prior to dosing. The positive control group consists of a triple therapy regimen (omeprazole, amoxicillin, and clarithromycin). Negative control used dosing solution without drugs.

A further assay deals with E. coli ATCC 25922. The assay can be described thus: Bacterial cytological profiling (Example 6), E. coli.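 On effect on cell envelope: tested at 1 0.5 and 0.25 times MIC.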 In kind it is cell-based. The method, then: This bacterial cytological profiling (BCP) study uses methods and materials described previously by Nonejuie, P., Burkart, M., Poglianoa, K., Pogiano, J. (2013). Bacterial cytological profiling rapidly identifies the cellular pathways targeted by antibacterial molecules. Proc. Natl. Acad. Sci. U.S.A. 110(40):16169-16174. doi: 10.1073/pnas.1311066110.
Wild type strains of E. coli ATCC 25922 or P. aeruginosa K2732 are grown in rich media (unbuffered 2× Lysogeny broth [LB]) at 30 C to an OD600˜0.4. These cultures are then split and each sample treated with the appropriate concentration of Nu-8 in unbuffered or buffered LB (final mixture OD600˜0.1). Cells exposed without Nu-8 are buffered to pH 4 with phosphoric acid.
The BCP is performed in LB media buffered to pH 4. The minimum inhibitory concentration (MIC) is measured for Nu-3, Nu-4, Nu-5, and Nu-8 against each bacterial strain. As one of ordinary skill in the art understands, minimum inhibitory concentrations are the lowest concentration of an antimicrobial that will inhibit the visible growth of a microorganism after overnight incubation. […] Cellular viability is assayed at three time points (5 minutes and 4 and 24 h following the onset of treatment).
For imaging E. coli, treated cells are stained with 1 μg/Ml FM4-64, 2 μg/mL DAPI, and 0.5 μM SYTOXGreen (Molecular Probes/Invitrogen). P. aeruginosa samples are stained 0.5 μM SYTOX Green, 28 μg/mL DAPI, and 4.5 μg/mL FM 4-64. Cells are transferred to an agarose pad (20% LB, 1% agarose) for imaging as described in Pogliano, J., Osborne, N., Sharp, M. D., Abanes-De Mello, A., Perez, A., Sun, Y.-L. and Pogliano, K. (1999), A vital stain for studying membrane dynamics in bacteria: a novel mechanism controlling septation during Bacillus subtilis sporulation. Molecular Microbiology, 31: 1149-1159. doi:10.1046/j.1365-2958.1999.01255.x.

The test system of assay [2] is P. aeruginosa. The assay can be described thus: MIC broth microdilution (CLSI) at incremental pH, P. aeruginosa. In kind it is cell-based. The conditions noted are these: Pseudomonas aeruginosa. How it is done:
MIC testing is conducted using the broth (Mueller Hinton Broth) microdilution procedures relevant to each organism group as established by the Clinical and Laboratory Standards Institute (CLSI; 3-7). MIC plates are prepared in accordance with CLSI (3-7). To prepare the test plates, automated liquid handlers are used to conduct serial dilutions and liquid transfers. Automated liquid handlers utilized in this study include the Multidrop 384 (Labsystems, Helsinki, Finland) and the Biomek 2000 (Beckman Coulter, Fullerton CA). The solution is diluted to desired pH using 1 M Citric Acid or 1 M NaOH buffer. A standardized inoculum of each test organism is prepared per CLSI methods (3, 5-7) to equal a 0.5 McFarland standard in the appropriate media followed by an additional 1:20 dilution (1:10 for anaerobes).
The plates are then inoculated with 10 μL of the diluted 0.5 McFarland suspension using the Biomek 2000 from low to high drug concentration, resulting in a final concentration of approximately 5×10^5 CFU/mL per well. An un-inoculated plate is incubated for the purpose of assessing solubility of the drug in the test media. The plates are stacked 3 to 4 high, covered with a sterile lid on the top plate, and incubated for 18 to 24 hours according to CLSI. The MIC is recorded as the lowest concentration of respective compound that inhibited visible growth of the organism.

Another assay concerns E. coli. The assay can be described thus: MIC in lysogeny broth (LB) at pH 4. In kind it is cell-based. The conditions noted are these: Escherichia coli. How it is done:
(§1) The MICs are also determined using lysogeny broth (LB) at pH 4 as the growth medium. Under these conditions, Nu-8 is active against E. coli and P. aeruginosa with MICs of 54 and 27 mg/mL, respectively.

The test system of assay [3] is P. aeruginosa. As to the kind of experiment: MIC in lysogeny broth (LB) at pH 4. In kind it is cell-based. To be noted: Pseudomonas aeruginosa. How it is done: as §1

On to `CCCCOP(=O)(O)OC[C@H]1O[C@@H](n2ccc(N)nc2=O)C[C@@H]1OP(=O)(O)OCCCC` [Nu-8, sodium ((2R,3S,5R)-5-(4-amino-2-oxopyrimidin-1(2H)-yl)-3-((butoxyoxidophosphor-yl)oxy)tetrahydrofuran-2-yl)methyl butyl phosphate], for which the “mean bacterial stomach titer” value in assay [1] (0.2 mg (1 mg/mL, 0.2 mL) PO bid 7 days, +7 Days) is 5.62 log10 CFU; in assay [1] (0.2 mg (1 mg/mL, 0.2 mL) PO bid 7 days, +14 Days), 6.2 log10 CFU; in assay [1] (1.0 mg (5 mg/mL, 0.2 mL) PO bid 7 days, +7 Days), 5.21 log10 CFU; in assay [1] (1.0 mg (5 mg/mL, 0.2 mL) PO bid 7 days, +14 Days), 5.67 log10 CFU; in assay [1] (2 mg (10 mg/mL, 0.2 mL) PO bid 7 days, +7 Days), 4.74 log10 CFU; in assay [1] (2 mg (10 mg/mL, 0.2 mL) PO bid 7 days, +14 Days), 5.81 log10 CFU. For the same compound, in the assay on E. coli ATCC 25922 (BCP), the “effect on cell envelope” value is reported as “affect the cell envelope”. Also, in the assay with E. coli ATCC 25922 (buffered pH 4 or unbuffered LB), the cell membrane permeability entry was “increase cell membrane permeability”. Further, the DNA condensation entry in the assay with E. coli ATCC 25922 (higher treatment concentrations, buffered pH 4) is reported as “causes DNA condensation”. The MIC is 9.38 mg/mL against P. aeruginosa [2] (pH 1); 18.8 mg/mL with P. aeruginosa [2] (pH 3); 37.5 mg/mL against P. aeruginosa [2] (pH 4); 75 mg/mL with P. aeruginosa [2] (pH 5); more than 75 mg/mL with P. aeruginosa [2] (pH 7); 54 mg/mL against E. coli. Also, the MIC against P. aeruginosa [3] was determined as 27 mg/mL.

A word on the MIC: it is the smallest concentration in the dilution series that meets the test's criterion for growth inhibition. A higher MIC goes with weaker potency.
